Experimental data: PMC7216467, “Evaluation of neuroprotective and anti-amnesic effects of Elaeagnus umbellata Thunb. On scopolamine-induced memory impairment in mice” (BMC Complementary Medicine and Therapies, 2020)

Legend:
DPPH scavenging assay = test: DPPH scavenging assay
Description: About 24 mg, DPPH was dissolved in 100 mL methanol. Compounds solutions (1 mg/mL) were also prepared in methanol. […] About 0.1 mL of each working dilution was mixed with DPPH (3.0 mL) and incubated at 25 °C for 30 min. […] Ascorbic acid was used as a standard.

ABTS scavenging assay = test: ABTS scavenging assay
Description: About 300 μL compounds working dilutions and 3.0 mL ABTS solutions were mixed and incubated for 6 min. Finally the absorbance was measured via UV spectrophotometer. Ascorbic acid was used as positive control. % ABTS scavenging potential was measured using eq. 4.

[1] = target: T1, Acetyl cholinesterase (Electron-eel Type, VI-S) (Electrophorus electricus, UniProt O42275); test: biochemical; type: biochemical; conditions: for IC50: linear regression, read-out: AChE IC50 (converted)
T1 construct: purchased Sigma-Aldrich, Germany
Description: Ellman assay was used to evaluate E. umbellata fruit extracts and isolated compounds for their anticholinesterase potentials. About 205 μL extract/compound solutions and 5 μL of AChE (0.03 U/mL)/BChE (0.01 U/mL) along with catalyst DTNB (5 μL) were taken in a cuvette and kept at 30 °C in hot water bath for 15 min. […] As a negative control solution all the above mentioned components except extracts and isolated compounds were mixed in the mentioned order.
V is inhibitor dependent rate of reaction while, Vmax is inhibitor independent rate of reaction.

T1 sequence (O42275 24-633): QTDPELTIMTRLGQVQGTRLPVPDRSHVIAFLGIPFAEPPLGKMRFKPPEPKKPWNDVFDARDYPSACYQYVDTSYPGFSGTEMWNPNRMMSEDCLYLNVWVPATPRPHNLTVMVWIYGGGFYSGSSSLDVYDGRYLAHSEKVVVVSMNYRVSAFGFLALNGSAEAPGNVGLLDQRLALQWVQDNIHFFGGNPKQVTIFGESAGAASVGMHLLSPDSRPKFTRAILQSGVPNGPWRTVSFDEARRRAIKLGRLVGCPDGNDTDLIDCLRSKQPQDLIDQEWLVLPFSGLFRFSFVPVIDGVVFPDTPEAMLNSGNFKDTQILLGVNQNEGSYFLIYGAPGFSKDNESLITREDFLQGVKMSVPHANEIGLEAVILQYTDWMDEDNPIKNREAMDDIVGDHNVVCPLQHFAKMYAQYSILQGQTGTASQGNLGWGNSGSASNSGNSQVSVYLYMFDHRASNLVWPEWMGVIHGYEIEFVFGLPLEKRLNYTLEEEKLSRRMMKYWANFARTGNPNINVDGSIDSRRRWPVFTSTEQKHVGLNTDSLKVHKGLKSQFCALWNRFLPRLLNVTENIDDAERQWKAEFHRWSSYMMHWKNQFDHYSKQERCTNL

SMILES: O=C1O[C@H]([C@@H](O)CO)C(O)=C1O [Ascorbic acid, reference compound]
- DPPH IC50 (DPPH scavenging assay): 29 µg/mL
- % DPPH Scavenging Mean ± SEM (DPPH scavenging assay; 31.05 µg/mL): 69±0.4%
- % DPPH Scavenging Mean ± SEM (DPPH scavenging assay; 62.5 µg/mL): 73±0.5%
- % DPPH Scavenging Mean ± SEM (DPPH scavenging assay; 125 µg/mL): 77±0.4%
- % DPPH Scavenging Mean ± SEM (DPPH scavenging assay; 250 µg/mL): 80±0.4%
- % DPPH Scavenging Mean ± SEM (DPPH scavenging assay; 500 µg/mL): 86±1.0%
- % DPPH Scavenging Mean ± SEM (DPPH scavenging assay; 1000 µg/mL): 91±0.5%
- ABTS IC50 (ABTS scavenging assay): 32 µg/mL
- % ABTS Scavenging Mean ± SEM (ABTS scavenging assay; 31.05 µg/mL): 56±1.1%
- % ABTS Scavenging Mean ± SEM (ABTS scavenging assay; 62.5 µg/mL): 64±1.0%
- % ABTS Scavenging Mean ± SEM (ABTS scavenging assay; 125 µg/mL): 70±0.5%
- % ABTS Scavenging Mean ± SEM (ABTS scavenging assay; 250 µg/mL): 78±0.5%
- % ABTS Scavenging Mean ± SEM (ABTS scavenging assay; 500 µg/mL): 84±1.1%
- % ABTS Scavenging Mean ± SEM (ABTS scavenging assay; 1000 µg/mL): 90±0.5%

SMILES: O=c1oc2c(O)c(O)cc3c(=O)oc4c(O)c(O)cc1c4c23 [Compound-II, Ellagic acid]
- % AChE Mean ± SEM ([1]; 31.05 µg/mL): 41±0.3 %
- % AChE Mean ± SEM ([1]; 62.5 µg/mL): 48±0.5 %
- % AChE Mean ± SEM ([1]; 125 µg/mL): 52±0.4 %
- % AChE Mean ± SEM ([1]; 250 µg/mL): 68±0.1 %
- % AChE Mean ± SEM ([1]; 500 µg/mL): 75±0.4 %
- % AChE Mean ± SEM ([1]; 1000 µg/mL): 81±0.5 %
- IC50 [1]: 195 µM
- DPPH IC50 (DPPH scavenging assay): 39 µg/mL
- % DPPH Scavenging Mean ± SEM (DPPH scavenging assay; 31.05 µg/mL): 44±1.4 %
- % DPPH Scavenging Mean ± SEM (DPPH scavenging assay; 62.5 µg/mL): 57±0.5 %
- % DPPH Scavenging Mean ± SEM (DPPH scavenging assay; 125 µg/mL): 59±0.4 %
- % DPPH Scavenging Mean ± SEM (DPPH scavenging assay; 250 µg/mL): 60±1.2 %
- % DPPH Scavenging Mean ± SEM (DPPH scavenging assay; 500 µg/mL): 70±0.5 %
- % DPPH Scavenging Mean ± SEM (DPPH scavenging assay; 1000 µg/mL): 77±1.1 %
- ABTS IC50 (ABTS scavenging assay): 44 µg/mL
- % ABTS Scavenging Mean ± SEM (ABTS scavenging assay; 31.05 µg/mL): 41±0.5 %
- % ABTS Scavenging Mean ± SEM (ABTS scavenging assay; 62.5 µg/mL): 49±1.0 %
- % ABTS Scavenging Mean ± SEM (ABTS scavenging assay; 125 µg/mL): 57±1.0 %
- % ABTS Scavenging Mean ± SEM (ABTS scavenging assay; 250 µg/mL): 64±0.3 %
- % ABTS Scavenging Mean ± SEM (ABTS scavenging assay; 500 µg/mL): 65±0.4 %
- % ABTS Scavenging Mean ± SEM (ABTS scavenging assay; 1000 µg/mL): 69±1.0 %

SMILES: O=C(O)c1cc(O)c(O)c(O)c1 [Compound-III, Gallic acid]
- % AChE Mean ± SEM ([1]; 31.05 µg/mL): 39±0.5 %
- % AChE Mean ± SEM ([1]; 62.5 µg/mL): 43±1.1 %
- % AChE Mean ± SEM ([1]; 125 µg/mL): 49±1.4 %
- % AChE Mean ± SEM ([1]; 250 µg/mL): 55±0.3 %
- % AChE Mean ± SEM ([1]; 500 µg/mL): 62±1.2 %
- % AChE Mean ± SEM ([1]; 1000 µg/mL): 76±2.1 %
- IC50 [1]: 265 µM
- DPPH IC50 (DPPH scavenging assay): 52 µg/mL
- % DPPH Scavenging Mean ± SEM (DPPH scavenging assay; 31.05 µg/mL): 43±1.4 %
- % DPPH Scavenging Mean ± SEM (DPPH scavenging assay; 62.5 µg/mL): 48±0.5 %
- % DPPH Scavenging Mean ± SEM (DPPH scavenging assay; 125 µg/mL): 50±1.2 %
- % DPPH Scavenging Mean ± SEM (DPPH scavenging assay; 250 µg/mL): 59±1.5 %
- % DPPH Scavenging Mean ± SEM (DPPH scavenging assay; 500 µg/mL): 70±1.1 %
- % DPPH Scavenging Mean ± SEM (DPPH scavenging assay; 1000 µg/mL): 76±0.5 %
- ABTS IC50 (ABTS scavenging assay): 54 µg/mL
- % ABTS Scavenging Mean ± SEM (ABTS scavenging assay; 31.05 µg/mL): 43±1.3 %
- % ABTS Scavenging Mean ± SEM (ABTS scavenging assay; 62.5 µg/mL): 48±0.4 %
- % ABTS Scavenging Mean ± SEM (ABTS scavenging assay; 125 µg/mL): 50±1.5 %
- % ABTS Scavenging Mean ± SEM (ABTS scavenging assay; 250 µg/mL): 54±1.1 %
- % ABTS Scavenging Mean ± SEM (ABTS scavenging assay; 500 µg/mL): 60±0.5 %
- % ABTS Scavenging Mean ± SEM (ABTS scavenging assay; 1000 µg/mL): 65±2.1 %

SMILES: Oc1cc(O)cc(O)c1 [Compound-IV, Phloroglucinol]
- % AChE Mean ± SEM ([1]; 31.05 µg/mL): 21±1.5 %
- % AChE Mean ± SEM ([1]; 62.5 µg/mL): 29±2.1 %
- % AChE Mean ± SEM ([1]; 125 µg/mL): 34±1.5 %
- % AChE Mean ± SEM ([1]; 250 µg/mL): 40±0.5 %
- % AChE Mean ± SEM ([1]; 500 µg/mL): 52±1.6 %
- % AChE Mean ± SEM ([1]; 1000 µg/mL): 66±1.2 %
- IC50 [1]: 730 µM
- DPPH IC50 (DPPH scavenging assay): 105 µg/mL
- % DPPH Scavenging Mean ± SEM (DPPH scavenging assay; 31.05 µg/mL): 32±0.5 %
- % DPPH Scavenging Mean ± SEM (DPPH scavenging assay; 62.5 µg/mL): 36±1.1 %
- % DPPH Scavenging Mean ± SEM (DPPH scavenging assay; 125 µg/mL): 40±0.5 %
- % DPPH Scavenging Mean ± SEM (DPPH scavenging assay; 250 µg/mL): 51±1.0 %
- % DPPH Scavenging Mean ± SEM (DPPH scavenging assay; 500 µg/mL): 57±1.0 %
- % DPPH Scavenging Mean ± SEM (DPPH scavenging assay; 1000 µg/mL): 67±0.4 %
- ABTS IC50 (ABTS scavenging assay): 112 µg/mL
- % ABTS Scavenging Mean ± SEM (ABTS scavenging assay; 31.05 µg/mL): 25±1.0 %
- % ABTS Scavenging Mean ± SEM (ABTS scavenging assay; 62.5 µg/mL): 33±0.5 %
- % ABTS Scavenging Mean ± SEM (ABTS scavenging assay; 125 µg/mL): 39±1.2 %
- % ABTS Scavenging Mean ± SEM (ABTS scavenging assay; 250 µg/mL): 45±1.0 %
- % ABTS Scavenging Mean ± SEM (ABTS scavenging assay; 500 µg/mL): 51±0.5 %
- % ABTS Scavenging Mean ± SEM (ABTS scavenging assay; 1000 µg/mL): 54±1.1 %
